Where two headings read alike, the source gives them in different places.
Key:
[1] = test system: A549 human alveolar basal epithelial cells; test: MTT cell viability and proliferation assay, A549 cells; format: cell-based
Protocol: (§1) In order to study the molecular biology effects of synthesized spiropyrrolidine heterocyclic hybrids, we have used the in vitro toxicology tests and for that, two different cell types, each of cancer and non-cancer origin were employed. The non-cancer cell lines include the L929 mouse fibroblasts and MCF10 breast cells, while the cancer cell lines are A549 human alveolar basal epithelial cells and Jurkat human T lymphocyte cells. […] All the biological studies were carried by selecting Camptothecin (CPT) as a positive control and the cells of no treatment as the negative control. The reason for selecting this particular compound as a positive control is that it is a well-known anticancer agent and acts by the mechanism of topoisomerase I inhibition along with the DNA cleavage, subsequent inhibition of litigation, and finally leads to DNA strand breaks. The detailed procedures for the cell culturing and assay protocols were mentioned elaborately in our earlier publications (Bwatanglang et al., [2016a],[b]; Kumar et al., [2018]). Each experiment was repeated thrice and the results expressed as the mean ± standard deviation of all the data values. From the graph, the ^* and ^** corresponds to p < 0.05 and p < 0.01 vs. the untreated-control measurements.
(§2) Also, the loss of viability seems to be increased with an increase in the concentration and incubation period and this provides the preliminary information that the tested compounds are maintaining some levels of therapeutic behavior toward the cancer cells and if it can be guided carefully, can lead to the anticancer activity. […] This difference in the sensitivity of two cancer cells to the same testing compound can be attributed to the changes in the resistive response of each cell types which is supported by the intracellular protein mechanisms (Mohammad et al., [2014]; Bwatanglang et al., [2017]). Since the amount of intracellular proteins secreted by the cells are unique to each individual cell type and so in that way some cells may react very fast as compared to the others. Also, the efficiency of any chemotherapeutic agent is decided by its ability to reduce the cell count at the earliest possible time and in that way we have identified the A549 cells to be the highly responsive cell type to the compound 5e over a 24 h period as compared to the other compounds, cells, and time periods. The visual observation of cells by means of microscopic observation also be confirming for a decrease in the number of cells for the compound 5e treated cells as against the positive control of CPT (30 μM) and negative control of without any treatment (Figures S11, S11a). […] In a general way, our interest is with the therapeutic agent of higher efficiency at the shortest exposure period and so we carried the following mechanistic studies linked to the cell death for the compound 5e at the 24 h exposure period only.

[2] = test system: Jurkat human T lymphocyte cells; test: MTT cell viability and proliferation assay, Jurkat cells; format: cell-based; details: for IC50: Homo sapiens, MTT
Protocol: as §1, §2

A549 cells = test: Apoptosis assay (PI / Annexin V-FITC) in A549 cells; format: cell-based, human; details: for live cells: lower left quadrant; for apoptotic cells: lower right quadrant; for late apoptotic or early necrosis cells: upper right quadrant; for cells experiencing the apoptotic pathway: A549, 48 h incubation (Figure S12)
Protocol: as §1
The compound 5e induced apoptotic pathway for A549 treated cells over a 24 h period is compared against the positive (CPT, 30 μM) and negative controls and the results are shown in Figure 3. Similarly, the apoptosis study over the 48 h exposure period is shown in the supporting information of Figure S12. As compared to the behavior of cells shown in Figures 3A-1,B-1, the compound 5e treated cells (C-1) are experiencing a significant amount of apoptotic pathway. […] These numbers for the compound 5e treated cells are getting shifted to 39% of live cells, 40% apoptotic, and 18% late apoptotic or early necrosis pathways. The observation of only 9% apoptotic cells for the CPT treated cells while 40% for the 5e treated cells provides a preliminary indication of the way of handling the cancer cells by the compound 5e. Since the CPT acts directly onto the cancer cells and responsible for the accidental or irreversible pathway of reducing the cancer cell number and however, the compound 5e works in a systematic way and induces the cancer cell death almost similar to CPT. […] Since the cells which are experiencing the apoptotic pathway can be reversible and in that way the healthy normal cells can be reverted to their normal stage and at the same time the cancer cells can be molded to the late apoptotic or early necrosis pathways by applying some physiological changes to the cells.
Figure 3 Comparison of the apoptosis assay results for 5e treated cells along with the CPT treated and untreated cells over 24 h period for A549 cells. From the figure, A-1 & A-2 corresponds to the negative control, B-1 & B-2 for the positive control of CPT, and C-1 & C-2 for our testing sample 5e.

caspases in A549 cells = test: Caspase activity by fluorescence microscopy in A549 cells; format: cell-based, human; details: A549, 24 h, 5e at IC50, compared with CPT treated cells (Figure 4B)
Protocol: as §1, with “The detailed procedures for the cell culturing and assay protocols were mentioned elaborately in our earlier publications (Bwatanglang et al., [2016a],[b]; Kumar et al., [2018]).” left out, “From the graph, the ^* and ^** corresponds to p < 0.05 and p < 0.01 vs. the untreated-control measurements.” left out
Based on the results provided by the apoptotic assay, compound 5e was further tested toward the role of caspases as these are the proteins which get released in response to the specific death stimuli. […] Similarly, the observation of no such green fluorescence in the cytoplasm of cells shown in Figure 4A means that there is no initiation of such pathways in that particular culture.

[3] = MTT cell viability assay, non-cancer L929 cells; format: cell-based; details: mouse, L929 mouse fibroblast cells (non-cancer)
Protocol: as §1, with “measurements. […]” for “measurements.”

[4] = MTT cell viability assay, non-cancer MCF10 cells; format: cell-based; details: human, MCF10 breast cells (non-cancer)
Protocol: as §1, with “measurements. […]” for “measurements.”

[5] = 24 h incubation, read-out: IC50 μM (24 h) A549
[6] = 48 h incubation, read-out: IC50 μM (48 h) A549
[7] = 24 h incubation, read-out: IC50 μM (24 h) Jurkat
[8] = 48 h incubation, read-out: IC50 μM (48 h) Jurkat
[9] = A549, 24 h, 5e at IC50 (55 μM), CPT 30 μM

SMILES | IC50 [1, 5] | IC50 [1, 6] | IC50 [2, 7] | IC50 [2, 8] | further results
CN1C(Cc2ccc(O)cc2)C([N+](=O)[O-])C(c2ccccc2)C12C(=O)c1cccc3cccc2c13 (stereo not shown) [C00001] | 84.2 ± 4.2 µM | 68.5 ± 3.1 µM | 65.6 ± 2.1 µM | 31.4 ± 2.3 µM | 
COc1ccc(C2C([N+](=O)[O-])C(Cc3ccc(O)cc3)N(C)C23C(=O)c2cccc4cccc3c24)cc1 (stereo not shown) [C00005] |  |  | 81.2 ± 3.1 µM | 61.2 ± 4.6 µM | 
CN1C(Cc2ccc(O)cc2)C([N+](=O)[O-])C(c2ccc(Cl)cc2)C12C(=O)c1cccc3cccc2c13 (stereo not shown) [C00003] | 77.3 ± 4.56 µM | 52.3 ± 2.2 µM | 63.2 ± 3.2 µM | 59.5 ± 4.1 µM | 
CN1C(Cc2ccc(O)cc2)C([N+](=O)[O-])C(c2cccc([N+](=O)[O-])c2)C12C(=O)c1cccc3cccc2c13 (stereo not shown) [5f, Spiro[acenaphthene-2′.2-pyrrolidin]-1′-one] |  |  |  |  | loss of cell viability ([2]; highest concentration of 100 μM, 48 h): 90%
COc1ccc(C2C([N+](=O)[O-])C(Cc3ccc(O)cc3)N(C)C23C(=O)c2cccc4cccc3c24)cc1 (stereo not shown) [5e, Spiro[acenaphthene-2′.2-pyrrolidin]-1′-one] | 55.2 ± 2.15 µM | 20.5 ± 3.6 µM |  |  | live cells (A549 cells; [9]): 39%; apoptotic cells (A549 cells; [9]): 40%; late apoptotic or early necrosis cells (A549 cells; [9]): 18%; cells experiencing the apoptotic pathway (A549 cells): 88%; caspase release (green fluorescence in cytoplasm) (caspases in A549 cells): higher than the corresponding cells shown in Figure 4B
Cc1ccc(C2C([N+](=O)[O-])C(Cc3ccc(O)cc3)N(C)C23C(=O)c2cccc4cccc3c24)cc1 (stereo not shown) [C00004] | 82.1 ± 2.55 µM | 70.2 ± 2.8 µM | 78.2 ± 2.6 µM | 47.5 ± 3.8 µM | 
CN1C(Cc2ccc(O)cc2)C([N+](=O)[O-])C(c2cccc([N+](=O)[O-])c2)C12C(=O)c1cccc3cccc2c13 (stereo not shown) [C00006] | 70.7 ± 3.45 µM | 41.2 ± 2.4 µM | 92.5 ± 2.8 µM | 62.5 ± 4.4 µM | 
CC[C@@]1(O)C(=O)OCc2c1cc1n(c2=O)Cc2cc3ccccc3nc2-1 [CPT, Camptothecin] |  |  |  |  | mortality at 30 μM [3]: ~50%; mortality at 30 μM [4]: ~50%; M2 (cells experiencing the apoptotic pathway) (A549 cells; [9]): 48%; live cells (A549 cells; [9]): 45%; apoptotic cells (A549 cells; [9]): 9%; late apoptotic or early necrosis cells (A549 cells; [9]): 36%; cells experiencing the apoptotic pathway (A549 cells): 63%
CN1C(Cc2ccc(O)cc2)C([N+](=O)[O-])C(c2ccc(Br)cc2)C12C(=O)c1cccc3cccc2c13 (stereo not shown) [C00002] | 79.5 ± 3.15 µM | 36.2 ± 4.5 µM | 82.4 ± 4 µM | 52.2 ± 3.5 µM | 

Reference: article PMC7283928, “In vitro Mechanistic Exploration of Novel Spiropyrrolidine Heterocyclic Hybrids as Anticancer Agents” (Frontiers in Chemistry, 2020)
